This note sets out measurements from patent publication US7632972B2, “Compounds and methods for treatment of cancer and modulation of programmed cell death for melanoma and other cancer cells” (The Board of Trustees of the University of Illionis, priority 2003, dated 2009).

Entries after “also recorded” stand apart in the source; their conditions may differ. A value given as a limit tells only on which side of the number the result lay.

Data set [1] has as its system U-937 cells. Description: High-throughput cell death assay on library members (MTS/PMS). The format is cell-based, human. To be noted: library members at 100 μM, 24 hours.
A short description of data set [2]: in vitro. Format: cell-based, human. To be noted: human.
The subject of data set [3] is caspase-3 like protease activity in U-937 cells. Description: Caspase-3 activity assay (Ac-DEVD-pNA cleavage by cell lysates). Format: cell-based, human. To be noted: 100 μM. Here is the method: Caspase-3 Activity Assay: The amount of caspase-3 like protease activity was determined by the amount of Ac-DEVD-pNA (N-acetyl-Asp-Glu-Val-Asp p-nitroanilide) cleaved per minute by cell lysates. To accomplish this, 100 μM of 13-D was added to cell culture flasks containing 50 mL of 10×10^6 U-937 cells/mL at 72, 48, 36, 24, 12 and 0 hours before harvesting. Cells were harvested by centrifugation, counted and diluted with RPMI 1640 media to a concentration of 4×10^6 cells/mL. 100 μL of the diluted cells were added to the wells of a 96-well plate in quadruplicate. The plate was then spun at 1000×g for 5 minutes to pellet the cells. […] The slope of the linear portion for each compound was then determined and any cleavage of the substrate in the control wells was subtracted out. The amount of Ac-DEVD-pNA cleaved in pmol/min was then calculated and plotted.
Apoptotic assays. […] Thus early stage (mitochondrial membrane depolarization), middle stage (caspase-3 like activation, PARP-1 cleavage) and late stage (chromatin condensation, phosphatidylserine exposure, membrane blebbing) biochemical events were monitored. […] Several dyes, including JC-9, have been developed that provide a sensitive readout on this process. […] The caspase-3-like activity of the cells can be monitored with peptidic substrates. […]

Data set [4] has as its system U-937 cells. The data set can be described thus: Analysis of mitochondria depolarization by flow cytometry (JC-9 dye). Format: cell-based, human. As for the experimental part:
Further experiments assessed whether the observed death from 12-D, 13-D, and 15-D was due to apoptosis or necrosis.
Analysis of Mitochondria Depolarization by Flow Cytometry: The depolarization of the mitochondrial membrane was measured by the fluorescence emitted by the JC-9 dye (Molecular Probes, Eugene Oreg.). 100 μM of 13-D or 10 μM etoposide in 1 μL of EtOH were added to cell culture flasks containing 50 mL of 10×10^6 U-937 cells/mL. […] 10 μg of the JC-9 dye was added to 1×10^6 cells in 1 mL and incubated at room temperature for 10 min. Cells were washed twice with PBS and resuspended in a final volume of 500 μL PBS. The fluorescence intensity of each cell was determined by flow cytometry at 525 nm (channel 1 green) and 675 nm (channel 4 red). 50,000 cells were analyzed in each experiment. The data was then analyzed using Summit Software (Cytomation, Fort Collins Colo.) and the number of cells within the upper left region, viable cells, was determined.
Apoptotic assays. To determine whether the observed death was due to apoptosis or necrosis, several apoptotic hallmarks were examined. Thus early stage (mitochondrial membrane depolarization), middle stage (caspase-3 like activation, PARP-1 cleavage) and late stage (chromatin condensation, phosphatidylserine exposure, membrane blebbing) biochemical events were monitored. The depolarization of mitochondrial membranes facilitates the release of pro-apoptotic proteins such as cytochrome c and AIF (apoptosis inducing factor) from the mitochondria into the cytosol. Several dyes, including JC-9, have been developed that provide a sensitive readout on this process. […] The release of pro-apoptotic stimuli from the mitochondria initiates a cascade of events that ultimately results in the activation of the “executioner” caspases, typically caspase-3 and caspase-7. The caspase-3-like activity of the cells can be monitored with peptidic substrates. […] PARP-1 cleavage. A final event in apoptosis is the exposure of phosphatidylserine on the outer leaflet of the cell membrane; this event allows for recognition of apoptotic cells by phagocytes, ultimately leading to the engulfment of the apoptotic cell and the recycling of the various cellular components.
For orientation: In flow cytometry, cells or beads pass a laser one at a time.

The test system of data set [5] is T cells. The format is cell-based, mouse. The text has this: Erythrocytes were selectively lysed and the T cells were highly enriched by using a mouse erythrocyte lysing kit and a mouse T cell enrichment column (R & D Systems, Minneapolis Minn.). FITC labeled anti-TCR antibodies were used to determine the purity of T cells in pre- and post-column samples. The T cells were enriched from approximately 35% to 90% of the total cell population (see FIG. 6A, 6B below). […] These cells were either stimulated to grow (by addition of ConA to a concentration of 2.5 μg/mL) or left untreated. […] After the 72 hours of incubation, 200 μL of cells were diluted in 300 μL PBS. Propidium iodide was then added to a concentration of 1 μg/mL. Cells were then incubated at room temperature for 5 minutes and analyzed by flow cytometry. The fluorescene intensity of each cell was determined at 620 nm (channel 3) and at least 50,000 cells were analyzed for each experiment (FIG. 7A, 7B, below). The data was then analyzed using Summit Software (Cytomation, Fort Collins Colo.) and the number of viable cells was determined. Non-concanavalin A stimulated T cells were also treated with 13-D, and viable cells in these samples were determined by PI staining (as above).
FIG. 7A illustrates flow cytometry data from Concanavalin A stimulated T cells; region R1 indicates 86.4% viable cells. […]

For data set [6], the system named is U-937 cells. The data set can be described thus: Microscopy of treated cells. To be noted: 100 μM. The format is cell-based, human. As for the experimental part: Compound 13-D was added to make a final concentration of 100 μM. Pictures of the cells were taken at various times using a Carl Zeiss confocal microscope (Carl Zeiss, Thornwood N.Y.). Picture at 100×; FIG. 9B. Picture at 100×; FIG. 10A. Picture at 400×; FIG. 10B. Picture at 400×; FIG. 10C. Picture at 400×; and FIG. 11. Picture at 200×.

For data set [7], the system named is splenocytes. The data set can be described thus: Splenocyte toxicity assay (concanavalin A stimulated, MTS/PMS). The following applies: 72 h.
Protocol: For this experiment, the spleen from a euthanized mouse was harvested, and the splenocytes isolated.
Splenocyte Toxicity Assay: Splenocytes were isolated from the spleen of a 7-month old male C57Black/6 mouse and suspended in 1 mL RPMI 1640+10% FBS+2.5 μg/mL concanavalin A. These cells were counted and diluted so that 2.5×10^5 cells were seeded in to each well containing a total of 200 μL of media. […] 1 μL of EtOH was added to separate control wells. After 72 hours of incubation, 20 μL of the MTS/PMS CellTiter 96 Cell Proliferation Assay reagent (Promega, Madison Wis.) was added to each well. The plates were incubated at 37° C. for approximately two hours until the colored product formed and the absorbance was then measured at 490 nm in a Spectra Max Plus 384 plate reader (Molecular Devices, Sunnyvale Calif.).
Data set [8] deals with cell cycle. Description: Cell cycle analysis, DNA content by flow cytometry of propidium iodide stained cells. The format is cell-based. To be noted: position of cell cycle arrest. As for the experimental part:
Cell cycle analysis and NCl screen. The data in FIG. 21 and Table 11 show potential structure-activity trends. Several amides derived from the triphenylacetic acid (TPA) and triphenylpropionic acid (TPP) building blocks induced a high degree of cell death in this assay. Experiments were conducted to determine the position on the cell cycle at which these compounds arrest cell growth. This is typically determined by assessing the DNA content as measured flow cytometry analysis of cells stained by propidium iodide. Flow cytometry data is presented in FIG. 22, along with control data. […] One of the active apoptotic inducers identified from this combinatorial library that was not derived from the TPA or TPP building blocks (x) also arrests cell growth in the G2/M phase as indicated by the data in FIG. 22B. However, compounds containing the triphenylacetic acid and triphenylpropionic acid building blocks all arrest cell growth in the G1 phase (FIG. 22C and FIG. 22D). Here compounds x and y correspond to compounds Z2 and Z3.

For the compound `COc1cc(/C=C/C(=O)NC[C@@H](O)c2ccc(O)cc2)ccc1O` [Compound 13-D, N-[2-(S)-Hydroxy-2-(4-hydroxy-phenyl)-ethyl]-3-(4-hydroxy-3-methoxy-phenyl)-acrylamide], the “Induction of death in U-937 cells (percentages of cell death)” value in data set [1] was 87%. The 50% inhibitory concentration (IC50) at 72 h in data set [2] came out at 44 µM. The caspase-3 activity entry in data set [3] is given as “strong induction of caspase-3 activity”. For the same compound, the “observed death due to apoptosis or necrosis” value in data set [4] is “induced apoptosis”. The “cell population in which apoptosis is induced (JC-9 staining)” value in data set [4] (100 μM, 72 h) is “over 70%”. In addition, the “viable cells, treated versus non-treated control cells” value in data set [5] was “no difference was observed”. In addition, in data set [6], the “microscopy, evidence of apoptosis” value is “membrane blebbing and cell shrinkage”. Also, in data set [7] (500 μM), the “toxicity towards actively dividing splenocytes” value was “virtually no death; also recorded: virtually no toxicity”. Also, in data set [7] (Mus musculus, Splenocyte, read-out: IC50 for non-cancerous splenocytes), the IC50 is above 1000 µM.

For the compound `CC(=O)O[C@H]1C(=O)[C@@]2(C)[C@H]([C@H](OC(=O)c3ccccc3)[C@]3(O)C[C@H](OC(=O)[C@H](O)[C@@H](NC(=O)c4ccccc4)c4ccccc4)C(C)=C1C3(C)C)[C@]1(OC(C)=O)CO[C@@H]1C[C@@H]2O` [Taxol], the cell cycle arrest result in data set [8] was “mitotic (M) phase arrest”.

For orientation: IC50 means the concentration needed to halve the response being measured.
